Article PMC11818416, “Discovery of TRPV4-Targeting Small Molecules with Anti-Influenza Effects Through Machine Learning and Experimental Validation” (International Journal of Molecular Sciences, 2025)
Counter-ions that a name gives are not always drawn.

Columns and labels:
in vitro = settings: dog
Method: (§1) MDCK cells were inoculated in 96-well plates at 37 °C and 5% carbon dioxide for 12 h. The cell supernatant was discarded when the cell density reached 60–70%, and then different concentrations of drugs (0.1, 1, 10, 100 μM) were inoculated in the cell plates, moreover 3 repeat holes were set for each concentration gradient. After 48 h, cell viability was measured using cell counting kit-8 (Beyotime, C0039, CCK-8) depending on factory instructions. The absorbance at 450 nm for each pore was measured using an enzyme-linked immunosorbent plate reader, and half inhibitory concentration (CC50) value of cell viability were calculated by a nonlinear regression curve fitting analysis (Prism 8) of cell viability to the log10 conversion concentration value.

H1N1-UI182 = experiment: Mice infected with lethal H1N1-UI182 virus: body weight, survival, lung index, lung viral titer, pathology, viral proteins; type: in vivo, BALB/c mice; settings: for rate of weight loss in virus-infected mice: 15-drug round, monitored 14 days (Figure 4A,B); for viral titers in the lung: Supplementary Figures S1C and S2C, comparable to the positive drugs; for survival rate of infected mice: 15-drug round (Figure 4C,D); for expression levels of viral proteins (NP, HA, M1) in lungs, WB: 15-drug round (Figure 4K,L); for lung injury (pathology): compared to other treatment groups and virus group, glecaprevir 30 mg/kg, everolimus 5 mg/kg (Figures S1, S2); for protection rate (survival of influenza-infected mice): H1N1-UI182 5 × LD50, BALB/c mice; for rate of weight loss at different concentrations / survival at different concentrations / dose dependence of the inhibitory effect on the virus (lung index, pulmonary viral load, pathological injury): oral
[1] = CCK-8 cytotoxicity test on MDCK cells; settings: dog
Method: as §1

[2] = tested on: NF-κB signaling pathway and inflammatory cytokines; experiment: Inflammatory cytokine expression after H1N1-UI182 infection by WB and RT-qPCR; type: in vivo, mouse; settings: after H1N1-UI182 infection (Figure 6A-C)
H1N1-UI182 in 293T cells = type: cell-based, human
[3] = glecaprevir 10, 20, 40 mg/kg/day, everolimus 1, 5, 25 mg/kg/day
[4] = glecaprevir 10, 20, 40 mg/kg/day, everolimus 1, 5, 25 mg/kg/day, 5 dpi

For `CCC[C@H](NC(=O)[C@@H]1[C@H]2CCC[C@H]2CN1C(=O)[C@@H](NC(=O)[C@@H](NC(=O)c1cnccn1)C1CCCCC1)C(C)(C)C)C(=O)C(=O)NC1CC1` [Telaprevir], which CC50 at 48 h (in vitro) is on record?
The CC50 at 48 h was greater than 100 µM.

Which results are given for `CSCCNc1nc(SCCC(F)(F)F)nc2c1ncn2[C@@H]1O[C@H](COP(=O)(O)OP(=O)(O)C(Cl)(Cl)P(=O)(O)O)[C@@H](O)[C@H]1O` [Cangrelor]?
rate of weight loss in virus-infected mice (H1N1-UI182): significantly slowed the rate of weight loss; CC50 at 48 h (in vitro): > 100 µM

For `C[C@H]1O[C@H](O[C@H]2[C@H](O)[C@@H](O)[C@@H](O[C@H]3[C@H](O)[C@@H](O)C(O)O[C@@H]3CO)O[C@@H]2CO)[C@H](O)[C@@H](O)[C@@H]1N[C@H]1C=C(CO)[C@@H](O)[C@H](O)[C@H]1O` (stereo partly drawn) [Acarbose], which “rate of weight loss in virus-infected mice” value (H1N1-UI182) is on record?
The value was “significantly slowed the rate of weight loss”.

What about the CC50 at 48 h ([1]; MDCK cells) of the same compound?
The CC50 at 48 h was greater than 100 µM.

For `NC[C@H]1O[C@H](O[C@H]2[C@H](O)[C@@H](O[C@H]3O[C@H](CO)[C@@H](O)[C@H](N)[C@H]3O)[C@H](N)C[C@@H]2N)[C@H](N)C[C@@H]1O` [Tobramycin], which CC50 at 48 h ([1]; MDCK cells) is on record?
The CC50 at 48 h was greater than 100 µM.

With `NC[C@@H]1O[C@H](O[C@H]2[C@@H](O)[C@H](O[C@@H]3[C@@H](O)[C@H](N)C[C@H](N)[C@H]3O[C@H]3O[C@H](CO)[C@@H](O)[C@H](O)[C@H]3N)O[C@@H]2CO)[C@H](N)[C@@H](O)[C@@H]1O` [Paromomycin, Paromomycin sulfate] as the compound, how does the CC50 at 48 h ([1]; MDCK cells) read?
The CC50 at 48 h was greater than 100 µM.

For `C[C@@H]1O[C@@H](OC[C@H]2O[C@@H](Oc3c(-c4ccc(OCCO)c(OCCO)c4)oc4cc(OCCO)cc(O)c4c3=O)[C@H](O)[C@@H](O)[C@@H]2O)[C@H](O)[C@H](O)[C@H]1O` [Troxerutin], which CC50 at 48 h ([1]; MDCK cells) is on record?
Its CC50 at 48 h is less than 50 µM.

With `CC(C)(C)[C@@H]1NC(=O)O[C@@H]2CCC[C@H]2OC/C=C/C(F)(F)c2nc3ccccc3nc2O[C@@H]2C[C@@H](C(=O)N[C@]3(C(=O)NS(=O)(=O)C4(C)CC4)C[C@H]3C(F)F)N(C2)C1=O` [Glecaprevir] as the compound, how does the “viral titers in the lung” value (H1N1-UI182; 5 dpi) read?
Its value is “significantly reduced viral titers”.

And the “survival rate of infected mice” value (H1N1-UI182)?
Its value is “significantly improved the survival rate”.

And the “expression levels of viral proteins (NP, HA, M1) in lungs, WB” value (H1N1-UI182)?
Its value is “attenuated obviously”.

What about the “rate of weight loss in virus-infected mice” value (H1N1-UI182) of the same compound?
The value was “significantly slowed the rate of weight loss”.

And the “lung injury (pathology)” value (H1N1-UI182; 5 days after infection)?
Its value is “noticeable signs of lung improvement”.

What about the “protection rate (survival of influenza-infected mice)” value (H1N1-UI182) of the same compound?
Its value is 80%.

What about the “expression of viral protein in mouse lungs at higher doses, WB” value (H1N1-UI182; glecaprevir 10, 20, 40 mg/kg/day (Figure 5K)) of the same compound?
Its value is “did not effectively inhibit the expression of viral protein at higher doses”.

What about the “lung lesions at higher concentrations” value (H1N1-UI182; glecaprevir 10, 20, 40 mg/kg/day, 5 dpi, H&E (Figure 5I)) of the same compound?
Its value is “higher concentrations did not alter the lung lesions”.

And the “rate of weight loss at different concentrations” value (H1N1-UI182; [3])?
The value was “observably retarded the rate of weight loss”.

And the “survival at different concentrations” value (H1N1-UI182; [3])?
Its value is “improved survival in a concentration-dependent manner”.

And the “dose dependence of the inhibitory effect on the virus (lung index, pulmonary viral load, pathological injury)” value (H1N1-UI182; [4])?
The value was “did not display concentration-dependent characteristics”.

And the “expression levels of phosphorylated NF-κB, IL-6, IL-10, IFN-β, TNF-α (WB)” value [2]?
The value was “decreased”.

And the CC50 at 48 h (in vitro)?
The CC50 at 48 h was 77.3 µM.

With `CNCC(=O)OCc1cccnc1N(C)C(=O)OC(C)[n+]1cnn(C[C@](O)(c2cc(F)ccc2F)[C@@H](C)c2nc(-c3ccc(C#N)cc3)cs2)c1` (stereo partly drawn) [Isavuconazonium] as the compound, how does the CC50 at 48 h ([1]; MDCK cells) read?
Its CC50 at 48 h is greater than 100 µM.

With `COC(=O)N[C@H](C(=O)N1CCC[C@H]1C(=O)Nc1ccc([C@@H]2CC[C@@H](c3ccc(NC(=O)[C@@H]4CCCN4C(=O)[C@@H](NC(=O)OC)C(C)C)cc3)N2c2ccc(C(C)(C)C)cc2)cc1)C(C)C` [Ombitasvir] as the compound, how does the CC50 at 48 h [1] read?
Its CC50 at 48 h is greater than 100 µM.

With `CO[C@H]1C[C@@H]2CC[C@@H](C)[C@@](O)(O2)C(=O)C(=O)N2CCCC[C@H]2C(=O)O[C@H]([C@H](C)C[C@@H]2CC[C@@H](OCCO)[C@H](OC)C2)CC(=O)[C@H](C)/C=C(\C)[C@@H](O)[C@@H](OC)C(=O)[C@H](C)C[C@H](C)/C=C/C=C/C=C/1C` [Everolimus] as the compound, how does the “viral titers in the lung” value (H1N1-UI182; 5 dpi) read?
Its value is “significantly reduced viral titers”.

And the “survival rate of infected mice” value (H1N1-UI182)?
Its value is “significantly improved the survival rate”.

And the “expression levels of viral proteins (NP, HA, M1) in lungs, WB” value (H1N1-UI182)?
Its value is “attenuated obviously”.

And the “rate of weight loss in virus-infected mice” value (H1N1-UI182)?
The value was “significantly slowed the rate of weight loss”.

And the “viral load in the lungs” value (H1N1-UI182; 5 days after infection, compared to the viral group (Figure 4G-J))?
Its value is “evidently lower”.

And the “lung injury (pathology)” value (H1N1-UI182; 5 days after infection)?
Its value is “noticeable signs of lung improvement”.

And the “protection rate (survival of influenza-infected mice)” value (H1N1-UI182)?
Its value is 100%.

What about the “pulmonary viral load at different concentrations” value (H1N1-UI182; everolimus 1, 5, 25 mg/kg/day, 5 dpi (Figure 5H)) of the same compound?
The value was “decreased notably with the increase of drug concentration”.

What about the “rate of weight loss at different concentrations” value (H1N1-UI182; [3]) of the same compound?
The value was “observably retarded the rate of weight loss”.

What about the “survival at different concentrations” value (H1N1-UI182; [3]) of the same compound?
The value was “improved survival in a concentration-dependent manner”.

What about the “dose dependence of the inhibitory effect on the virus (lung index, pulmonary viral load, pathological injury)” value (H1N1-UI182; [4]) of the same compound?
The value was “meaningfully dose-dependent”.

And the “expression levels of phosphorylated NF-κB, IL-6, IL-10, IFN-β, TNF-α (WB)” value [2]?
Its value is “decreased”.

What about the “expression level of NP protein in normal 293T cells (WB)” value (H1N1-UI182 in 293T cells) of the same compound?
Its value is “higher in normal cells”.

What about the “expression of NP protein in TRPV4−/− 293T cells (WB)” value (H1N1-UI182 in 293T cells) of the same compound?
The value was “significantly decreased”.

What about the CC50 at 48 h (in vitro) of the same compound?
Its CC50 at 48 h is 78.2 µM.

Which CC50 at 48 h ([1]; MDCK cells) does the source give for `CCCCC(=O)OCC(=O)[C@]1(O)Cc2c(O)c3c(c(O)c2[C@@H](O[C@H]2C[C@H](NC(=O)C(F)(F)F)[C@H](O)[C@H](C)O2)C1)C(=O)c1c(OC)cccc1C3=O` [Valrubicin] here?
The CC50 at 48 h was less than 50 µM.

For `CN[C@@H]1[C@@H](O)[C@@H](O[C@@H]2[C@@H](O)[C@H](O[C@H]3O[C@H](CN)[C@@H](O)[C@H](O)[C@H]3O)[C@@H](N)C[C@H]2NC(=O)[C@@H](O)CN)OC[C@]1(C)O` [Isepamicin], which CC50 at 48 h ([1]; MDCK cells) is on record?
The CC50 at 48 h was greater than 100 µM.

Which CC50 at 48 h ([1]; MDCK cells) does the source give for `CC(/C=C/C=C(\C)C(=O)O[C@@H]1O[C@H](CO[C@@H]2O[C@H](CO)[C@@H](O)[C@H](O)[C@H]2O)[C@@H](O)[C@H](O)[C@H]1O)=C\C=C\C=C(C)\C=C\C=C(/C)C(=O)O[C@@H]1O[C@H](CO[C@@H]2O[C@H](CO)[C@@H](O)[C@H](O)[C@H]2O)[C@@H](O)[C@H](O)[C@H]1O` [Crocin] here?
Its CC50 at 48 h is greater than 100 µM.

With `Cc1cc2nc3c(=O)[nH]c(=O)nc-3n(C[C@H](O)[C@H](O)[C@H](O)COP(=O)(O)OP(=O)(O)OC[C@H]3O[C@@H](n4cnc5c(N)ncnc54)[C@H](O)[C@@H]3O)c2cc1C` [FAD] as the compound, how does the CC50 (MDCK cells) read?
Its CC50 is less than 50 µM.
